Source: PubChem BioAssay AID179 (DTP/NCI, 2004)
Active and inactive are the calls of the source.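 The calls were made as follows: active = compounds giving half or more protection of infected cells from virus-caused growth loss, again on retest; inactive = the rest.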 Where a SMILES comes first, the peptide text is derived from it. The star is where a group is joined. Boc = CC(C)(C)OC(=O)*

Test system: CEM cells HIV-1 protection, formazan growth assay
Experiment: NCI AIDS Antiviral Assay
Settings: for IC50: measured here: growth of uninfected CEM cells
In short: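 Category rules: moderately active means at least 50% protection on retest, and confirmed active means 100% protection reproducibly. The underlying data came from a formazan growth assay in HIV-1-infected CEM cells.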

| SMILES | EC50 [µM] | IC50 [µM] | outcome |
| --- | --- | --- | --- |
| COc1ccc(-c2c(C3=NCCN3)nnn2-c2ccccc2)cc1 | > 295 | > 295 | – |
| COC(=O)C(/C(=N\O)C(=O)Nc1ccc(Br)cc1)c1nc2ccccc2[nH]c1=O (configuration not stated) | > 141 | > 141 | – |
| COc1cc(CO)c(CC(=O)NCCCc2ccccc2)cc1OC | > 200 | 18.2 | – |
| O=S(=O)(O)c1cc(Cl)c(O)c2ncc(Cl)cc12 | > 200 | 42.7 | – |
| Cn1c(=O)c(Cl)c(N=[N+]=[N-])c2ccccc21 | > 75.9 | 55 | – |
| CCOP(=O)(OCC)c1c(C(=O)OC)cc(=O)[nH]c1-c1ccc(C)cc1 | > 200 | 7.94 | – |
| Cc1cc2ccc([N+](=O)[O-])cn2c1 | > 200 | 115 | – |
| COc1cc2c(cc1OC)NCC1COc3c(ccc(OC)c3OC)C1=N2 (configuration not stated) | > 200 | 117 | – |
| COC(=O)/C=C1\C(CO[Si](C)(C)C(C)(C)C)OC(n2cc(C)c(=O)n(C)c2=O)C1O[Si](C)(C)C(C)(C)C (configuration not stated) | > 200 | 20.9 | – |
| CCCCCCCCNC(=S)/N=C/c1c(O)c2ccccc2oc1=O | > 200 | 38.9 | – |
| O=S(=O)(O)CC(O)CCl (configuration not stated) | > 200 | > 200 | – |
| CNC(=O)NCCN1N=C(C)/C(=C\c2ccccc2)CC1=O | – | – | inactive |
| O=P1(N2CCOCC2)OCCO1 | > 200 | > 200 | – |
| Cc1ccc(C)n1N1CC(C)N(N=O)CC1C (configuration not stated) | > 200 | > 200 | – |
| COC(=O)C1C2CC3c4[nH]c5cc(OC)ccc5c4CCN3CC2CC(OC)C1OC (configuration not stated) | > 200 | > 200 | – |
| COc1cc(/C=C2\C(=O)N(c3ccccc3Cl)C(c3ccccc3)S2(=O)=O)cc(OC)c1OC (configuration not stated) | > 200 | 85.1 | – |
| O=C(O)CN(CCN(CC(=O)O)CC(=O)O)CC(=O)O.[Cu+2].[Na+] | > 200 | 8.91 | – |
| CCOC(=O)C[P+](c1cccc(F)c1)(c1cccc(F)c1)c1cccc(F)c1 | > 200 | 166 | – |
| Nc1cc([As](=O)(O)O)ccn1 | > 200 | > 200 | – |
| CN1CCN(C)P1c1ccccc1 | > 1290 | > 1290 | – |
| O=C1N(O)C2(C=CCCC2)/C(=N/O)C12CCCCC2 (configuration not stated) | > 70.8 | > 70.8 | – |
| NC(=O)OCC(COc1ccc(Cl)cc1)OC(=O)c1cc([N+](=O)[O-])cc([N+](=O)[O-])c1 (configuration not stated) | > 562 | 398 | – |
| CCCCCOCCCCCCCC(=O)O | > 200 | 89.1 | – |

| SMILES | EC50 [µM] | IC50 [µM] | outcome |
| --- | --- | --- | --- |
| Brc1ccc2nc(-c3ccccc3)c3ccccc3c2c1 | > 200 | > 200 | – |
| CC(=O)OC1COC(n2c(=S)n(-c3ccccc3)c(=O)c3ccccc32)C(OC(C)=O)C1OC(C)=O (configuration not stated) | > 36.3 | > 36.3 | – |
| Cc1cc(Cc2cc(C)c(NC(=O)C(=O)C3C(=O)NC(=S)NC3=O)c(C(C)C)c2)cc(C(C)C)c1NC(=O)C(=O)C1C(=O)NC(=S)NC1=O | – | – | inactive |
| O=C(c1ccc(Cl)cc1)C1N=NCC1c1ccccc1 (configuration not stated) | > 200 | 75.9 | – |
| c1ccc2sc(NCCSSCCNc3nc4ccccc4s3)nc2c1 | > 200 | 23.4 | – |
| Cc1cc(N(CCC#N)CCC#N)ccc1/C=C1N=C(/C=C/c2ccccc2)N(c2ccc(S(N)(=O)=O)cc2)C\1=O | – | – | inactive |
| O=c1cccc(-c2cccc(=O)[nH]2)[nH]1 | – | – | inactive |
| COC(=O)c1ccccc1C1CN=NC12Cc1ccc3ccccc3c1C2=O (configuration not stated) | > 200 | > 200 | – |
| Cn1c(=O)c2nc3sc4c(n3c2n(C)c1=O)C(=O)c1ccccc1C4=O | > 14.1 | > 14.1 | – |
| COC1=CC(=O)C2C(C1=O)[C@@H]1c3ccccc3OC(C)(C)[C@H]21 (some centres not stated) | > 166 | 16.2 | – |
| CCCCCCCC(=O)c1ccc(O)c(-c2nc3ccc(C(F)(F)F)cc3[nH]2)c1 | > 24.5 | 2.09 | – |
| COC(=O)/N=c1\cc(N2CC=CCC2)nc(N)n1O | > 200 | > 200 | – |
| Nn1c(SCC(=O)NCc2ccccc2)nc2ccccc2c1=O | 12.6 | 95.5 | – |
| C[C@@H]1C2(O)CC34CC(=O)OC3(C[C@@H](O)[C@H]4C)C1(C)CO2 (some centres not stated) | > 891 | > 891 | – |
| NC(N)=NCCCS(=O)(=O)Nc1ccc(Nc2c3ccccc3nc3cc([N+](=O)[O-])ccc23)cc1 | – | – | inactive |
| O=[N+]([O-])c1ccc(-c2noc(-c3ccccc3)c2C2=NCCN2)cc1 | > 15.5 | > 15.5 | – |
| O=c1c2ccccc2oc2cc3c(c(O)c12)CCCC3 | > 200 | > 200 | – |
| CCOC(=O)Nc1cc(C)c(NC(=O)CN(CC)CC)c(C)c1 | > 200 | > 200 | – |
| CC(=O)NC(ON1C(=O)COc2ccccc21)C(Cl)(Cl)Cl (configuration not stated) | > 100 | > 100 | – |
| NC(N)=N/N=C/c1c(-c2ccc(Cl)c(Cl)c2Cl)nc2sccn12 | 0.191 | 1.07 | – |
| CN(C)/N=N/c1nc2c(c(=O)n(C)c(=O)n2C)n1CC(O)CO (configuration not stated) | > 200 | > 200 | – |
| CCOC(=O)C1=NN(c2ccc(Cl)cc2)C2=CC(C)=NN(C)C(=S)N21 | > 200 | > 200 | – |
| CCn1cc(C(=O)O)c(=O)c2ccc(-c3ccncc3)cc21 | – | – | inactive |

| SMILES | EC50 [µM] | IC50 [µM] | outcome |
| --- | --- | --- | --- |
| c1ccc(-c2nnc(SCc3nc4ccccc4[nH]3)o2)cc1 | > 200 | 31.6 | – |
| Cc1cc(NC(=O)c2ccc(N=Nc3c(S(=O)(=O)O)cc4cc(NC(=O)c5ccc(N)cc5)ccc4c3O)cc2)ccc1N=Nc1ccc2cc(S(=O)(=O)O)cc(S(=O)(=O)O)c2c1 | – | – | active |
| COc1c(-c2cc(C)c(Cl)c(=O)[nH]2)c(O)c(OC)c2occc12 | > 200 | 110 | – |
| O=c1[nH]c(=S)[nH]n1C(=S)n1[nH]c(=S)[nH]c1=O | > 200 | > 200 | – |
| CSc1n[nH]c(N)c1C(=O)Nc1ccccc1 | > 186 | 117 | – |
| C=CCC12CCC(=O)[C@@]1(C)CC=C(O)C2=O (some centres not stated) | – | – | inactive |
| SCCN1CCCN(CCS)CCC1 | > 200 | 135 | – |
| CCOc1ccccc1NC(=O)C(C#N)C1=C(Cl)C(=O)c2ccccc2C1=O (configuration not stated) | – | – | inactive |
| CCCCNC(=S)Nc1nc(C(=O)NNC(=S)NC2CCCCC2)cs1 | > 200 | 170 | – |
| O=c1[nH]c2ccccc2c2c1CCO2 | – | – | inactive |
| CCCCCCCCCCCCCCCCCCNc1nc(=O)n(C2CC(OC(C)=O)C(COP(=O)(O)OCC3CCC(n4ccc(NC(=O)CCCCCCCCCCCCCCC)nc4=O)O3)O2)cc1F (configuration not stated) | 10 | 44.7 | – |
| CCCCNCc1cc(S(=O)(=O)N2CCCCC2)c2cccnc2c1O | > 47.9 | 8.91 | – |
| CC(NC(=O)C1CCCN1C(=O)CNC(=O)OC(C)(C)C)C(=O)O (stereo not drawn) (Boc-Gly-Pro-Ala-OH; configuration not given here) | > 200 | > 200 | – |
| O=c1[nH]c(Nc2cccc(CC(F)(F)F)c2)nc2nc[nH]c12 | > 200 | 110 | – |
| COc1cc(CC(=O)O)c(C(=O)c2ccc([N+](=O)[O-])cc2)cc1OC | > 200 | > 200 | – |
| C1CCC(CC2CCC(NC3=NCCO3)CC2)CC1 (configuration not stated) | > 200 | 31.6 | – |
| CC1(C)S[C@@H]2[C@H](NC(=O)C3(N)CCCC3)C(=O)N2[C@H]1C(=O)O | > 200 | > 200 | – |
| CC12C(=O)OCC1C1CCC2C1 (configuration not stated) | > 537 | > 537 | – |
| Cc1ccc2nnc(NS(=O)(=O)c3cc(C)c(Cl)cc3S)n2n1 | > 200 | > 200 | – |
| CN(C)CCCNC(=O)CNC(=O)c1cc(NC(=O)c2cc(NC(=O)c3cc(NC(=O)CCNC(=O)c4cc(NC(=O)c5cc(NC(=O)c6nccn6C)cn5C)cn4C)cn3C)cn2C)cn1C | – | – | inactive |
| CCC(C)c1c(NC(=O)c2ccccc2)o[nH]c1=O (configuration not stated) | > 200 | > 200 | – |
| CCN(CC)CC(=O)N(CC)c1ccc(C)c(Cl)c1 | > 200 | > 200 | – |
| C=CCCCC1CCCNC1=S (configuration not stated) | > 275 | > 275 | – |

| SMILES | EC50 [µM] | IC50 [µM] | outcome |
| --- | --- | --- | --- |
| Cc1cccc(N2CC3CC4C=CC3(C2)O4)c1 (configuration not stated) | > 200 | > 200 | – |
| COc1cccc(C(O)C(CN2CCCCC2)CN2CCCCC2)c1 (configuration not stated) | > 200 | > 100 | – |
| O=S(=O)(SC(S(=O)(=O)c1ccccc1)S(=O)(=O)c1ccccc1)c1ccccc1 | > 537 | 355 | – |
| O=C1NC(N2CCCCC2)=N/C1=C\c1ccccc1O | > 200 | 174 | – |
| O=C1COc2cccnc2N1CCCCO | > 200 | > 200 | – |
| O=C1C=CC(=O)C2C1C1CC3C=CC312 (configuration not stated) | > 1350 | > 1350 | – |
| O=C(Sc1sc(=S)sc1SC(=O)c1ccccc1)c1ccccc1 | > 17.8 | > 17.8 | – |
| O=Nc1c(-c2ccccc2)[nH]oc1=O | > 200 | 36.3 | – |
| O=C(NC(O)(C(F)(F)F)C(F)(F)F)c1ccccc1 | > 200 | 129 | – |
| BrC1CCCCCC(Br)C12OCCO2 (configuration not stated) | > 57.5 | > 57.5 | – |
| Cc1ccccc1C(C#N)/C(=N/NC(N)=S)C(=O)Nc1c(C)cccc1C (configuration not stated) | > 245 | 224 | – |
| CCCCCCN1CCc2c(C)c(C#N)c3nc4ccccc4n3c21 | > 100 | 17.8 | – |
| Clc1ccc(C2=NCON=C2c2ccc(Cl)cc2)cc1 | – | – | inactive |
| CCCCCCc1cc2cc(C(=O)Nc3nc(C45CC6CC(CC(C6)C4)C5)cs3)c(=O)oc2cc1O | > 100 | 8.51 | – |
| COc1ccc2c(c1)C1Oc3ccccc3CC1CO2 (configuration not stated) | > 200 | 52.5 | – |
| COC(=O)/C=C1\C=CC=CC12C(C(=O)OC)c1ccccc1C(C(=O)OC)C2C(=O)OC (configuration not stated) | > 200 | > 200 | – |
| CC1(C)OC2C(CO)OC(/N=C(\NC#N)Oc3ccccc3)C2O1 (configuration not stated) | > 200 | > 200 | – |
| CC12CCCC(C#N)(C1)OC2=O (configuration not stated) | – | – | inactive |
| N#Cc1ccccc1NC(=O)C(=O)C1NC(=S)NC1=O (configuration not stated) | – | – | inactive |
| CCC(C)[C@H]1C(=O)N=C(N)N1C(=O)OCc1ccccc1 (some centres not stated) | 195 | > 200 | – |
| COC(=O)C1(C2CCOC2=O)NCCc2c1[nH]c1ccccc21 (configuration not stated) | > 245 | 141 | – |
| COc1cccc(/C=N/[N-]C(N)=O)c1[O-].[Ni+2].[OH3+].c1cnc2c(c1)ccc1cccnc12 | – | – | inactive |
